Counter-ions that a name gives are not always drawn.
These compounds were tested against T1, human TLR7 (hTLR7) (Homo sapiens, UniProt Q9NYK1) (assay: Antagonist screen, hTLR7-NFκB-293 cells, NF-κB-luciferase reporter, with EC50 of R848). Conditions: compound at 0.5, 5, 50 μg/ml; EC50 concentration of R848; 16 h; NF-κB-luciferase.
T1 construct: expressed in transfected cells
T1 sequence (Q9NYK1 27-1049): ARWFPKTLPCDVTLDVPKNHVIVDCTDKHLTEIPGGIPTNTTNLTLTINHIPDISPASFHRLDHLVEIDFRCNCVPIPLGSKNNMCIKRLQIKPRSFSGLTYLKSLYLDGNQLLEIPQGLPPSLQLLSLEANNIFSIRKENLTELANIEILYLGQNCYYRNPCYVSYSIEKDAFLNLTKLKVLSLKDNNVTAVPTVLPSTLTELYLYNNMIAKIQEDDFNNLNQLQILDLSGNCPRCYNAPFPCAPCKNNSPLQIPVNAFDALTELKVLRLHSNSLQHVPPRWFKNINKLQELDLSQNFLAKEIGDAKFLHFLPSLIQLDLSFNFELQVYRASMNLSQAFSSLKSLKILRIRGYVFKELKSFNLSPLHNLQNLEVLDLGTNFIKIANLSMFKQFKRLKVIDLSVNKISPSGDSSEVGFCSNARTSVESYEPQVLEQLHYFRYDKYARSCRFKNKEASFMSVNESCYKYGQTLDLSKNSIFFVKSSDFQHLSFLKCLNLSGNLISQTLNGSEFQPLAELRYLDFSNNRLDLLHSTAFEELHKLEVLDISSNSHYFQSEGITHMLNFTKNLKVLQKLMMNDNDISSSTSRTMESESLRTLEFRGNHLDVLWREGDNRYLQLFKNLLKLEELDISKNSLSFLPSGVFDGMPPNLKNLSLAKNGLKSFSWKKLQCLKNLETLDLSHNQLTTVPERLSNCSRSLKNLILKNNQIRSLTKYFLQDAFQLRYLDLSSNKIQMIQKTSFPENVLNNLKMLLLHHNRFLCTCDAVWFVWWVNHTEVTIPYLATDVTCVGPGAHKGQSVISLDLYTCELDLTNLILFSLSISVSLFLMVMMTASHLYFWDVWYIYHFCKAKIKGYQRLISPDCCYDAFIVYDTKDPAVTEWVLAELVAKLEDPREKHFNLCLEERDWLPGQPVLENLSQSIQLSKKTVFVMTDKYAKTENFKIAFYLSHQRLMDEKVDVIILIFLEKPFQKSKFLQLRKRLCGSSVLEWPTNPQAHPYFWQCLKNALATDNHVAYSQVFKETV
Assay type: cell-based
Method: The method is described in greater detail as follows. The cells for each individual cell clone (hTLR3-NFκB-293, hTLR7-NFκB-293, hTLR8-NFκB-293 and hTLR9-NFκB-293) were counted and seeded one day before the stimulation at 1.5×10^4 cells per well in 96-well cell culture plates. To become adherent the cells were incubated after seeding overnight at 37° C. in 5% CO2 humidified air.
The screen for each compound was performed at the same time for all of the receptors TLR3, TLR7, TLR8 and TLR9. Up to fifteen test compounds, each assayed in duplicate at each of three different final concentrations (0.5 μg/ml, 5 μg/ml, and 50 μg/ml), were used for 16 h cell stimulation on a single multiwell culture plate. A 4× final concentration master plate was created to prepare the different test compounds before they were added to the cells.
Controls were added as duplicates individually for each cell clone on the cell culture plate. Positive controls were used as follows (final concentrations): 50 μg/ml poly(I:C) for hTLR3-NFκB-293; 8 μM resiquimod (R848) for hTLR7-NFκB-293; 30 μM R848 for hTLR8-NFκB-293; and 2.5 μM CpG-ODN 2006 for hTLR9-NFκB-293. Media alone was used as negative control. After addition of controls and small molecules, the cell clones were additionally stimulated with the EC50 concentration of the appropriate receptor-specific ligand.
The mean value of wells H2 and H5 (each with cells and EC50 concentration of the appropriate receptor-specific ligand) divided by the mean of wells H3 and H6 (each with cells alone) yielded the baseline response (i.e., fold induction of luciferase activity) to EC50 concentration of the appropriate receptor-specific ligand.
After 16 h stimulation the supernatant was removed and the cells treated with lysis buffer and stored at −80° C. before measuring.
For each screen result a graphical documentation was performed.
The baseline result (measured with addition of the EC50 concentration of the receptor-specific ligand) for each cell culture plate was measured as described above. Antagonistic effects were measured by down regulation compared to the baseline. Antagonists were scored as follows: • 13: compounds for which there was clear down regulation at 0.5 μg/ml, 5 μg/ml, and 50 μg/ml; • 12: compounds for which there was clear down regulation at 5 μg/ml and 50 μg/ml; • 11: compounds for which there was clear down regulation only at 50 μg/ml; • —: compounds for which there was no clear down regulation even at 50 μg/ml. Agonists
Results were expressed as fold induction over baseline luciferase activity measured in the absence of R848. […] Additional screening was performed in like manner using additional small molecules selected from another library or specifically prepared for this purpose. Scoring is reported as above but as applied to TLR7.

| Structure (SMILES) | hTLR7 (inhibitory effect, antagonist score) |
| --- | --- |
| CC(=O)c1ccc2c(c1)N(CCCN(C)C)c1ccccc1S2.O=C(O)/C=C\C(=O)O [compound 576, Acetopromazinemaleate salt] | — (compounds for which there was no clear down regulation even at 50 μg/ml) |
| COC(=O)C1=CO[C@@H](C)[C@@H]2CN3CCc4c([nH]c5ccccc45)[C@@H]3C[C@H]12 [compound 593, Tetrahydroalstonine] | 11 (compounds for which there was clear down regulation only at 50 μg/ml) |
| CC[C@]12CCCN3CCc4c(n(c5ccccc45)C(=O)C1)[C@@H]32 [compound 607, Eburnamonine] | 11 (compounds for which there was clear down regulation only at 50 μg/ml) |
| Cc1nccc2c1[nH]c1cc(O)ccc12.Cl [compound 612, Harmol hydrochloride monohydrate] | 11 (compounds for which there was clear down regulation only at 50 μg/ml) |
| COc1ccc2c(c1)[nH]c1c(C)nccc12.Cl [compound 613, harmine hydrochloride] | 13 (compounds for which there was clear down regulation at 0.5 μg/ml, 5 μg/ml, and 50 μg/ml) |
| Cc1c2ccncc2c(C)c2c1[nH]c1ccccc12 [compound 614, Ellipticine] | 13 (compounds for which there was clear down regulation at 0.5 μg/ml, 5 μg/ml, and 50 μg/ml) |
| Cc1nccc2c1[nH]c1ccccc12 [compound 620, Harmane hydrochloride] | — (compounds for which there was no clear down regulation even at 50 μg/ml) |
| COc1ccc2[nH]c3c(c2c1)CCN=C3C [compound 621, Methoxy-6-harmalan] | — (compounds for which there was no clear down regulation even at 50 μg/ml) |
| CC[C@]12CCCN3CCc4c(n(c5ccccc45)[C@](O)(C(=O)OC)C1)[C@@H]32 [compound 636, Epivincamine] | — (compounds for which there was no clear down regulation even at 50 μg/ml) |
| Cl.Cl.c1ccc2c3c([nH]c2c1)C1C2CCC(C4CCCNC42)N1CC3 (centres unmarked) [compound 685, Nitrarine dihydorchloride] | — (compounds for which there was no clear down regulation even at 50 μg/ml) |
| CN(C)CCCN1c2ccccc2Sc2ccccc21.Cl [compound 693, Promazinehydrochloride] | 12 (compounds for which there was clear down regulation at 5 μg/ml and 50 μg/ml) |
| CN1CCC(OC(c2ccccc2)c2ccccc2)CC1.Cl [compound 707, Diphenylpyralinehydrochloride] | 11 (compounds for which there was clear down regulation only at 50 μg/ml) |
| CCCC(C(=O)OCCN(CC)CC)(c1ccccc1)c1ccccc1.Cl [compound 778, Proadifen hydrochloride] | 11 (compounds for which there was clear down regulation only at 50 μg/ml) |
| Cl.Clc1ccc(C(OCCN2CCCCC2)c2ccccc2)cc1 (centres unmarked) [compound 793, Cloperastinehydrochloride] | 11 (compounds for which there was clear down regulation only at 50 μg/ml) |
| COc1ccc2c(c1)N(CC(C)CN(C)C)c1ccccc1S2.O=C(O)/C=C\C(=O)O (centres unmarked) [compound 797, Methotrimeprazinemaleat salt] | — (compounds for which there was no clear down regulation even at 50 μg/ml) |
| CS(=O)(=O)O.OC(CCN1CCCCC1)(c1ccccc1)c1ccccc1 [compound 799, Pridinolmethanesulfonate salt] | — (compounds for which there was no clear down regulation even at 50 μg/ml) |
| C[N+]12CCC(CC1)C(OC(=O)C(O)(c1ccccc1)c1ccccc1)C2.[Br-] (centres unmarked) [compound 822, Clidinium bromide] | — (compounds for which there was no clear down regulation even at 50 μg/ml) |
| Clc1ccc(C(c2ccccc2Cl)C(Cl)Cl)cc1 (centres unmarked) [compound 833, Mitotane] | 11 (compounds for which there was clear down regulation only at 50 μg/ml) |
| CCN(CC)C(C)CN1c2ccccc2Sc2ccccc21.Cl (centres unmarked) [compound 840, Ethopropazinehydrochloride] | — (compounds for which there was no clear down regulation even at 50 μg/ml) |
| CC(CN(C)C)CN1c2ccccc2Sc2ccccc21.CC(CN(C)C)CN1c2ccccc2Sc2ccccc21.O=C(O)C(O)C(O)C(=O)O (centres unmarked) [compound 842, Trimeprazine tartrate] | — (compounds for which there was no clear down regulation even at 50 μg/ml) |
| COC(=O)[C@H]1[C@H]2C[C@@H]3c4[nH]c5cc(OC)ccc5c4CCN3C[C@H]2C[C@@H](OC(=O)c2cc(OC)c(OC)c(OC)c2)[C@@H]1OC [compound 875, Reserpine] | — (compounds for which there was no clear down regulation even at 50 μg/ml) |
| OCc1cc2c(cn1)[nH]c1ccccc12 [compound 878, 3-hydroxymethyl-beta-carboline] | — (compounds for which there was no clear down regulation even at 50 μg/ml) |
| O=C(O)c1cc(C(c2ccc(O)c(C(=O)O)c2)C(Cl)(Cl)Cl)ccc1O [compound 884] | 11 (compounds for which there was clear down regulation only at 50 μg/ml) |
| CN(CCO)C(=O)c1cccc2c1-c1ccccc1C2=O [compound 890] | 11 (compounds for which there was clear down regulation only at 50 μg/ml) |
| COC(=O)c1cccc2c1-c1ccccc1/C2=N/O [compound 904] | 12 (compounds for which there was clear down regulation at 5 μg/ml and 50 μg/ml) |
| O=C(O)c1ccccc1NC1CC=CC2=C1C(=O)c1ccccc1C2=O (centres unmarked) [compound 917] | 11 (compounds for which there was clear down regulation only at 50 μg/ml) |
| O=C(O)c1cccc2c1/C(=N/O)c1ccccc1-2 [compound 918] | 11 (compounds for which there was clear down regulation only at 50 μg/ml) |
| CCCCOC(=O)c1cc([N+](=O)[O-])cc2c1-c1cc(CO)c([NH+]([O-])O)cc1C2=C(C#N)C#N (centres unmarked) [compound 939] | 11 (compounds for which there was clear down regulation only at 50 μg/ml) |
| O=C(O)c1cccc2c1-c1ccccc1/C2=N/Nc1ccc([N+](=O)[O-])cc1[N+](=O)[O-] [compound 944] | 11 (compounds for which there was clear down regulation only at 50 μg/ml) |

From US7410975B2, “Small molecule toll-like receptor (TLR) antagonists” (Coley Pharmaceutical Group, Inc., priority 2003, dated 2008)
